Reference: PMC11213934, “Allosteric modulators of M1 muscarinic receptors enhance acetylcholine efficacy and decrease locomotor activity and turning behaviors in zebrafish” (Scientific Reports, 2024)
Entries after “also recorded” stand apart in the source; their conditions may differ. Marks after values point to notes of the source that are not given here.

Key:
[1] = tested on: wild-type (AB) zebrafish (Danio rerio); experiment: Maximum tolerated concentration (MTC) determination in larval zebrafish; format: in vivo; conditions: for MTC (maximum tolerated concentration): after 24 h exposure, 5 dpf larvae; for Concentration up to which no signs of toxicity were produced: highest concentration tested
[2] = target: T1, human M1 muscarinic receptors (Homo sapiens, UniProt P11229); experiment: [3H]AA release ACh dose-response families fitted to an allosteric operational model; conditions: for Operational efficacy-B, τB: best-fit ± s.e.m.; for Operational efficacy-B, τB / Affinity-B, logKB: Em set to 2.0; for Affinity-B, logKB: given as logKB (negative log value), allosteric site
T1 sequence (P11229 1-460): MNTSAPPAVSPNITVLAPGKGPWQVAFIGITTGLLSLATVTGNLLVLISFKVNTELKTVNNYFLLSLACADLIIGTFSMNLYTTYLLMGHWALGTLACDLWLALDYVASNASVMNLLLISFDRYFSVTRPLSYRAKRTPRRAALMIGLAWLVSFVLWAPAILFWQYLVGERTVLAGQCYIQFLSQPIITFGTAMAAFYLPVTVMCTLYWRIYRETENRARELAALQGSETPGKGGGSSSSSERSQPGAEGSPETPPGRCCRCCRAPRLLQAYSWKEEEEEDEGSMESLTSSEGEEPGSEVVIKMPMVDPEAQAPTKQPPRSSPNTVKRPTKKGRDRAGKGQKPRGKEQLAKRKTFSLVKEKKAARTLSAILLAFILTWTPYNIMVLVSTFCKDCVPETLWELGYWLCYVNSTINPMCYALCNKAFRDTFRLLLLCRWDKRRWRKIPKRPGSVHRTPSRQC
Protocol: Stably transfected CHO-hM1 cells were seeded on 24-well plates (Greiner Bio-One GmbH, Frickenhausen, Germany) at a density of 5.0 × 10^4 cells/well in 0.5 ml of F-12 medium. Cells were incubated until they attached (approximately 3 h), followed by the addition of [^3H]AA to a final concentration of 0.05 μCi of [^3H]AA per well. The cells were then grown for 16 to 20 h before the assay was performed. [^3H]AA release was measured in Eagle’s basal medium with 20 mM HEPES and 2 mg/ml fatty acid-free bovine serum albumin (EM-BSA). Cells were rinsed twice with EM-BSA, followed by the addition of EM-BSA media containing experimental agents and incubated for 1 h at 37 °C. The assay was terminated by aspiration of the media, and the amount of [^3H]AA released was determined by liquid scintillation counting (Beckman-Coulter LS6500).
Tabulated [^3H]AA release data are represented as a fraction of maximal release elicited by ACh or as the fraction of release elicited by the relevant concentration of ACh alone, as indicated. Dose-response curves were normalized to the maximal response of ACh without allosteric ligand. Where indicated, response curves were analyzed using the empirical four-parameter equation: Y=Top+Bottom-Top/1+X/C50^n where X is the concentration of the ligand used, Y is the amount of response, C50 is the concentration of the ligand that produces 50% of the maximal effect, Top and Bottom are the top and bottom plateaus of the curve, and n is related to the Hill slope for the curve. Where indicated, families of response curves were analyzed according to an allosteric operational model[50],[51]: Y=EM[τAA(KB+αβB)+τBBKA]/[τAA(KB+αβB)+τBBKA+AKB+KAKB+KAB+αAB] where EM is the maximal response; A is the concentration of ACh; B is the concentration of the allosteric ligand; τA and τB represent the operational efficacies of A and B, respectively; KA and KB are the equilibrium dissociation constants of A and B; and α and β represent the cooperativities between A and B in terms of binding and activation, respectively. Curve-fitting was carried out with GraphPad Prism, version 5.0 or 6.0 (San Diego CA).

[3] = tested on: wild-type (AB) zebrafish (Danio rerio); experiment: animal or person; format: in vivo; conditions: for Effect on locomotor activity and turning behaviors, in words: 30 min spontaneous swimming period; for Concentration with significant effects on locomotor behaviors: AB zebrafish; for Distance moved / Variance turn angle: compound at 10 µM relative to controls, mean ± s.e.m., N = 12; for MEC: locomotor behaviors
[4] = target: T1, human M1 muscarinic receptors; experiment: [3H]-arachidonic acid release in CHO cells expressing M1 receptors, with and without ACh (single modulator concentration, four-parameter curves); format: cell-based; parameters: expressed in transfected cells; host or cells: CHO cells stably transfected with hM1, obtained from Mark Brann's laboratory (NIH); conditions: for 0.1 µM ACh: response with modulator present divided by response to ACh alone / 100 µM ACh: response with modulator present divided by response to ACh alone / No ACh: agonist effect of the allosteric ligand by itself, fraction of the maximal response that could be elicited by ACh: modulator 10 µM, CHO-hM1, mean ± s.e.m.; for No ACh: agonist effect of the allosteric ligand by itself, fraction of the maximal response that could be elicited by ACh: at least 4 determinations; for Effect on M1 receptor activity and ACh response, in words: modulators at 10 µM (amiodarone 30 µM)
[5] = tested on: wild-type (AB) zebrafish (Danio rerio); format: in vivo; conditions: compound at 10 µM relative to controls; mean ± s.e.m., N = 12

Structure (SMILES) | MTC (maximum tolerated concentration) [1] [µM] | Concentration up to which no signs of toxicity were produced [1] [µM] | Operational efficacy-B, τB [2] | Affinity-B, logKB [2] | Therap. index [3] | Effect on locomotor activity and turning behaviors, in words [3] | Concentration with significant effects on locomotor behaviors [3] [µM] | Distance moved [3] | Variance turn angle [3] | MEC [3] [µM] | 0.1 µM ACh: response with modulator present divided by response to ACh alone [4] | 100 µM ACh: response with modulator present divided by response to ACh alone [4] | No ACh: agonist effect of the allosteric ligand by itself, fraction of the maximal response that could be elicited by ACh [4] | Effect on M1 receptor activity and ACh response, in words [4] | Angular velocity [5] [%] | Kb ([2]; read-out: KB, affinity for M1 muscarinic receptors, allosteric operational model) [nM]
COc1c(I)cc(CN2C(=O)C(=O)c3ccccc32)cc1I [Compound 8a, 1-(3,5-diiodo-4-methoxybenzyl)indoline-2,3-dione] | > 30 | ≥ 30 | 0.17 ± 0.03 | −6.26 ± 0.15 | > 100 | reduced locomotor activity | 1 | 45.8 ± 6.4*** % | 161.1 ± 13.4*** % | 0.3 | 2.44 ± 0.21 | 1.62 ± 0.06 | 0.24 ± 0.04 | significant enhancement of ACh activity; also recorded: dramatically enhanced ACh efficacy | 197.1 ± 19.8 | 
COc1c(Br)cc(CN2C(=O)C(=O)c3ccccc32)cc1Br [Compound 8c, 1-(3,5-dibromo-4-methoxybenzyl)indoline-2,3-dione] | > 30 | ≥ 30 | 0.33 ± 0.06 | −5.53 ± 0.15 |  |  | 1 | 26.9 ± 3.7*** % | 150.8 ± 12.0*** % | 0.1 | 2.62 ± 0.19 | 1.42 ± 0.09 | 0.19 ± 0.03 | dramatically enhanced ACh efficacy | 201.6 ± 20.2 | 3000
CCN(CC)CCOc1ccc(CN2C(=O)C(=O)c3ccccc32)cc1 [Compound 7, 1-(4-(2-(diethylamino)ethoxy)benzyl)indoline-2,3-dione] | 10 |  |  | −6.20 ± 0.33 |  | not effective in reducing locomotor activity or elevating angular velocity or variance of turn angle |  | 72.5 ± 11.8% | 93.9 ± 10.6% | > 10 | 0.06 ± 0.01 | 1.11 ± 0.06 | 0.02 ± 0.01 | primarily decreased potency and slightly enhanced the efficacy of ACh; also recorded: lacked intrinsic activity; also recorded: decreased ACh potency with little impact on ACh efficacy | 122.4 ± 6.9 | 
